Eight compounds from ChEMBL document CHEMBL1157764, “Conserved high activity binding peptides are involved in adhesion of two detergent-resistant membrane-associated merozoite proteins to red blood cells during invasion” (J Med Chem, 2010) can be followed below.

The species named for the test is Homo sapiens. Kind of test: Binding affinity to RBC membrane receptor in human RBCs assessed as specific binding activity measured as ratio of specifically bound peptide/added peptide by gamma counter.

With `CC(C)C[C@H](NC(=O)[C@H](CC(C)C)NC(=O)[C@H](CO)NC(=O)[C@@H]1CCCN1C(=O)[C@@H](NC(=O)[C@H](CC(C)C)NC(=O)[C@H](Cc1ccc(O)cc1)NC(=O)[C@H](CO)NC(=O)[C@H](CCCCN)NC(=O)[C@H](CCCCN)NC(=O)[C@H](CCCCN)NC(=O)CNC(=O)[C@@H](NC(=O)[C@H](CO)NC(=O)[C@H](CS)NC(=O)[C@H](CCCCN)NC(=O)[C@H](Cc1cnc[nH]1)NC(=O)[C@H](Cc1ccc(O)cc1)NC(=O)[C@H](CC(=O)O)NC(=O)[C@@H](N)CO)C(C)C)[C@@H](C)O)C(=O)O`, the Activity was < 2%. The value for `CC(C)C[C@H](NC(=O)[C@@H](NC(=O)[C@@H](N)CC(=O)O)C(C)C)C(=O)N[C@@H](CO)C(=O)N[C@@H](CCC(=O)O)C(=O)N[C@@H](CO)C(=O)N[C@@H](CC(N)=O)C(=O)N[C@@H](CC(N)=O)C(=O)N[C@@H](CCC(=O)O)C(=O)N[C@@H](CC(N)=O)C(=O)N[C@@H](CCCCN)C(=O)N[C@@H](CCC(=O)O)C(=O)N[C@H](C(=O)N[C@@H](CO)C(=O)N[C@@H](CC(=O)O)C(=O)N[C@@H](CC(=O)O)C(=O)N[C@@H](C)C(=O)N[C@H](C(=O)N[C@@H](Cc1cnc[nH]1)C(=O)N[C@@H](Cc1ccc(O)cc1)C(=O)O)[C@@H](C)O)[C@@H](C)O` was > 2%; that for H-EEIGDESTDSSSMEIQDSTSY-OH was > 2%; that for `CC[C@H](C)[C@H](NC(=O)[C@@H]1CCCN1C(=O)[C@H](Cc1ccccc1)NC(=O)[C@H](Cc1cnc[nH]1)NC(=O)[C@H](Cc1ccccc1)NC(=O)[C@H](CCC(N)=O)NC(=O)[C@@H](NC(=O)[C@H](CCC(=O)O)NC(=O)[C@@H](NC(=O)[C@H](Cc1ccc(O)cc1)NC(=O)[C@H](CC(=O)O)NC(=O)[C@H](CCC(=O)O)NC(=O)[C@@H](N)CC(C)C)C(C)C)C(C)C)C(=O)N[C@@H](Cc1ccc(O)cc1)C(=O)N[C@@H](Cc1ccc(O)cc1)C(=O)N[C@H](C(=O)N[C@@H](CCCCN)C(=O)N[C@@H](Cc1ccccc1)C(=O)N[C@@H](CC(C)C)C(=O)N[C@@H](Cc1ccc(O)cc1)C(=O)O)[C@H](C)O` was > 2%. The result for H-NYYISPFYDENSIKQEINKK-OH reads > 2%; that for H-NNEKVVPLSNEPQEIIQPPIY-OH, > 2%. The value for `CC(C)[C@H](NC(=O)[C@H](Cc1ccc(O)cc1)NC(=O)[C@@H](N)CCC(=O)O)C(=O)N[C@@H](CC(N)=O)C(=O)N[C@@H](C)C(=O)N[C@@H](CC(N)=O)C(=O)N[C@@H](CO)C(=O)N[C@@H](CO)C(=O)N[C@@H](CCC(=O)O)C(=O)N[C@@H](CO)C(=O)N[C@@H](CO)C(=O)N[C@@H](CCC(=O)O)C(=O)N[C@@H](CCC(=O)O)C(=O)N[C@@H](CC(=O)O)C(=O)N[C@H](C(=O)N[C@H](C(=O)N1CCC[C@H]1C(=O)N[C@@H](CC(N)=O)C(=O)N[C@@H](CCC(=O)O)C(=O)N[C@H](C(=O)O)[C@@H](C)O)[C@H](C)O)[C@@H](C)O` was > 2%; that for `CC[C@H](C)[C@H](NC(=O)[C@@H](N)CO)C(=O)N[C@@H](CCC(=O)O)C(=O)N[C@@H](C)C(=O)N[C@@H](CO)C(=O)N[C@@H](CCC(=O)O)C(=O)N[C@@H](CO)C(=O)N[C@@H](CO)C(=O)N[C@@H](CCC(N)=O)C(=O)N[C@@H](CCCCN)C(=O)N[C@@H](CC(=O)O)C(=O)N[C@@H](CCC(=O)O)C(=O)N[C@H](C(=O)N[C@@H](CCCCN)C(=O)N[C@@H](CCC(=O)O)C(=O)N[C@H](C(=O)N[C@@H](CCC(=O)O)C(=O)N[C@@H](CC(=O)O)C(=O)N[C@@H](CCCCN)C(=O)N[C@@H](CCC(=O)O)C(=O)N[C@@H](Cc1ccc(O)cc1)C(=O)O)[C@H](C)O)[C@@H](C)O` was > 2%.
